What was measured:
[1] = tested on: A-type flu virus (jifang/90-15)
[2] = tested on: B-type flu virus (jifang/97-13)

SMILES | Activity for inhibiting A-type flu viruses SI (selection index, SI = TC50/IC50) [1] | Activity for inhibiting B-type flu viruses SI (selection index, SI = TC50/IC50) [2]
C=C(C(=O)Nc1ccccc1Br)C1CCC(C)C2CC(=O)C(C)=C2C1 (stereo not shown) [A-5, N(2-bromo-phenyl)-Rupestonic amide] | 3.3 | –
C=C(C(=O)Oc1ccc(Br)cc1)C1CCC(C)C2CC(=O)C(C)=C2C1 (stereo not shown) [B-4, Rupestonic (p-bromophenyl)-ester] | 4.3 | –
C=C(C(=O)Oc1ccc(Cl)cc1)C1CCC(C)C2CC(=O)C(C)=C2C1 (stereo not shown) [B-2, Rupestonic (p-chlorophenyl)-ester] | 12.6 | –
C=C(C(=O)OCc1ccc(Cl)cc1)C1CCC(C)C2CC(=O)C(C)=C2C1 (stereo not shown) [B-14, Rupestonic (p-chlorobenzyl)-ester] | 3.8 | 2.5
CCOC(=O)C1=C[C@@H](OC(CC)CC)[C@H](NC(C)=O)[C@@H](N)C1 [Oseltamivir] | >239.1 | –
C=C(C(=O)Oc1ccc(C)cc1)C1CCC(C)C2CC(=O)C(C)=C2C1 (stereo not shown) [B-9, Rupestonic (p-methylphenyl)-ester] | 14.3 | –
C=C(C(=O)Oc1ccccc1Cl)C1CCC(C)C2CC(=O)C(C)=C2C1 (stereo not shown) [B-3, Rupestonic (o-chlorophenyl)-ester] | 4.3 | –
C=C(C(=O)O)[C@H]1CC[C@H](C)[C@@H]2CC(=O)C(C)=C2C1 [Compound 1, rupestonic acid] | – | 9.00
NC(=O)c1ncn([C@@H]2O[C@H](CO)[C@@H](O)[C@H]2O)n1 [Ribavirin] | 982.8 | 132.1
C=C(C(=O)OCc1ccccc1Br)C1CCC(C)C2CC(=O)C(C)=C2C1 (stereo not shown) [B-17, Rupestonic (o-bromobenzyl)-ester] | 3.9 | 2.2
C=C(C(=O)OCC)C1CCC(C)C2CC(=O)C(C)=C2C1 (stereo not shown) [B-1, Ethyl Rupestonic ester] | 4.9 | 3.8
C=C(C(=O)Nc1ccc(Cl)cc1)C1CCC(C)C2CC(=O)C(C)=C2C1 (stereo not shown) [A-2, N(4-chloro-phenyl)-Rupestonic amide] | 6.3 | 4.0
C=C(C(=O)OCc1ccc([N+](=O)[O-])cc1)C1CCC(C)C2CC(=O)C(C)=C2C1 (stereo not shown) [B-15, Rupestonic (p-nitryl-benzyl)-ester] | 4.6 | 4.6
